In patent US20070122810A1 (priority 2003, published 2007):
Like-named read-outs stand apart in the source and are kept apart here.

Test system: tumor cell suspension (glioma samples)
[1] = FIG. 5, example A, tumor located near normal brain tissue in phylogenetic tree, 8 hours incubation, about 1/10 of highest blood concentration
[2] = FIG. 5, example B, tumor located near normal brain tissue in phylogenetic tree, 8 hours incubation, about 1/10 of highest blood concentration

Experimental: These drugs were classified into five following categories by pharmacological mechanism. • Alkylating agents: • 4-hydroperoxy-cyclophosphamide (CPM)(1 μg/ml), 4-hydroperoxy-ifosfamide (IFOS) (I μg/ml), melphalan (MPL) (0.5 μg/ml), carboquone (CQ) (0.1 μg/ml), nimustine (ACNU) (2 μg/ml), ranimustine (MCNU) (2 μg/ml), cisplatinum (CDDP) (0.5 μg/ml) and carboplatin (JM-8) (4 μg/ml) • Antimetabolites: • Methotrexate (MTX) (3 μg/ml), 5-fluoro uracil (5-FU) (10 μg/ml), thioinosine (6-MRP) (3μg/ml) and cytosine arabinoside (CA) (4 μg/ml) • Antibiotics: • Mitomycin C (MMC) (0.2 μg/ml), bleomycin (BLM) (1 μg/ml), peplomycin (PEP) (0.5 μg/ml), chromomycin A3 (TM) (0.01 μg/ml) and neocarsinostatin (NCS) (0.15 μg/ml) • Topoisomerase inhibitors: • Actinomycin D (ACD) (0.01 μg/ml), aclarubicin (ACR) (0.6 μg/ml), adriamycin (ADM) (0.3 μg/ml), daunomycin (DM) (0.6 μg/ml), pirarubicin (THP) (0.3 μg/ml), epirubicin (4′-EPI) (0.4 μg/ml), mitoxantrone (MIT) (0.06 μg/ml), etoposide (VP-16) (3 μg/ml) and camptothecine (CPT-11) (3 μg/ml) • Microtubule Inhibitors: • Vincristine (VCR) (0.1 μg/ml), vinblastin (VLB) (0.1 μg/ml), vindesin (VDS) (0.1 μg/ml) and paclitaxel (TAX) (0.6 μg/ml)
The in vitro concentrations of these drugs were set to about 1/10 of the highest blood concentration when administered at a dose clinically recommended, and differences in the reaction by dose were evaluated for 10 selected drugs (CPM, ACNU, CDDP, PEP, ADM, VP-16, CA, TAX, VCR). The cultured samples of these were mixed in a phosphate buffered saline (pH 7.2)/0.1% Triton X-100/0.1 mg/ml RNase/0.01% sodium azide for 15 minutes and subsequently mixed with 50 g/ml of propidium iodide (Sigma,St.Louis, Mo.) for 5 minutes. The isolated nuclei were analyzed with flow cytometer (FACScan:Becton Dickinson, Mountain view, Calif.). The efficacy of a drug was judged by shifting the nucleus of apoptosis to a low diploid (sub-G1) region and comparing reverse decrease of the peak of the thus incorporated diploid with decrease of untreated control cells. […] Decomposition and condensation of chromatin were judged as a marker of apoptosis and quantitatively evaluated by Fisher's exact test.

Structure (SMILES)	efficacy of drug in drug sensitivity test [1]	efficacy of drug in drug sensitivity test [2]	efficacy of drug in drug sensitivity test (FIG. 5, example C, tumor located slightly away from normal brain tissue in phylogenetic tree)	drug sensitivity of tumors having sensitivity to ACNU (tumors having sensitivity to ACNU)
Cc1ncc(CNC(=O)N(CCCl)N=O)c(N)n1 [ACNU, nimustine]	effective	effective	–	–
O=P1(N(CCCl)CCCl)NC(OO)CCO1 (stereo not shown) [CPM]	effective	effective	–	–
CC(=O)O[C@H]1C(=O)[C@@]2(C)[C@H]([C@H](OC(=O)c3ccccc3)[C@]3(O)C[C@H](OC(=O)[C@H](O)[C@@H](NC(=O)c4ccccc4)c4ccccc4)C(C)=C1C3(C)C)[C@]1(OC(C)=O)CO[C@@H]1C[C@@H]2O [TAX, paclitaxel]	–	effective	–	–
CC[C@]1(O)C[C@H]2CN(CCc3c([nH]c4ccccc34)[C@@](C(=O)OC)(c3cc4c(cc3OC)N(C=O)[C@H]3[C@@](O)(C(=O)OC)[C@H](OC(C)=O)[C@]5(CC)C=CCN6CC[C@]43[C@@H]65)C2)C1 [VCR, vincristine]	–	–	effective	generally resistant
